Results from patent US4303664A, “Novel penicillin derivatives containing a coumarin nucleus and medicines containing the same” (Teijin Limited, priority 1978, dated 1981).
In brackets after ≈: the same amount, converted by molar mass.

Experiments:
Assay type in all cases: cell-based
[1] = tested on: Staphylococcus aureus 209-p; test: Bactericidal test (MIC), Staphylococcus aureus 209-p; conditions: (1) Staphylococcus aureus 209-p
From the text: (§1) Results of bactericidal tests (MIC, r/ml) on the penicillin derivatives of this invention prepared in the above examples are shown in the following table.

[2] = tested on: Staphylococcus aureus 1248; test: Bactericidal test (MIC), Staphylococcus aureus 1248; conditions: (2) Staphylococcus aureus 1248; read-out: MIC
From the text: as §1

Bacillus subtilis = test: Bactericidal test (MIC), Bacillus subtilis; conditions: (3) Bacillus subtilis
From the text: as §1

[3] = tested on: Salmonella typhimurium G-20; test: Bactericidal test (MIC), Salmonella typhimurium G-20; conditions: Salmonella enterica; (4) Salmonella typhimurium G-20
From the text: as §1

[4] = tested on: Escherichia Coli NIHJ JC-2; test: Bactericidal test (MIC), Escherichia Coli NIHJ JC-2; conditions: NIHJJC2; (5) Escherichia Coli NIHJ JC-2
From the text: as §1

[5] = tested on: Klebsiella neumoniae ATCC10031; test: Bactericidal test (MIC), Klebsiella neumoniae ATCC10031; conditions: (6) Klebsiella neumoniae ATCC10031; read-out: MIC
From the text: as §1

Enterobactor cloacae 147 = test: Bactericidal test (MIC), Enterobactor cloacae 147; conditions: (7) Enterobactor cloacae 147
From the text: as §1

[6] = tested on: Enterobacter cloacae IF012937; test: Bactericidal test (MIC), Enterobacter cloacae IF012937; conditions: (8) Enterobacter cloacae IF012937
From the text: as §1

Morganella var. G-2 = test: Bactericidal test (MIC), Morganella var. G-2; conditions: VAR.G2; (9) Morganella var. G-2; read-out: MIC
From the text: as §1

Rettgerella var. Tid-21 = test: Bactericidal test (MIC), Rettgerella var. Tid-21; conditions: (10) Rettgerella var. Tid-21; read-out: MIC
From the text: as §1

Serratia G-18 = test: Bactericidal test (MIC), Serratia G-18; conditions: G18; (11) Serratia G-18; read-out: MIC
From the text: as §1

[7] = tested on: Pseudomonas aeruginosa IFO-3080; test: Bactericidal test (MIC), Pseudomonas aeruginosa IFO-3080; conditions: IFO3080; (12) Pseudomonas aeruginosa IFO-3080; read-out: MIC
From the text: as §1

[8] = tested on: Pseudomonas aeruginosa 0-37; test: Bactericidal test (MIC), Pseudomonas aeruginosa 0-37; conditions: 037; (13) Pseudomonas aeruginosa 0-37
From the text: as §1

[9] = tested on: Pseudomonas aeruginosa Tid-53; test: Bactericidal test (MIC), Pseudomonas aeruginosa Tid-53; conditions: TID53; (14) Pseudomonas aeruginosa Tid-53
From the text: as §1

[10] = tested on: Pseudomonas aeruginosa GN-315; test: Bactericidal test (MIC), Pseudomonas aeruginosa GN-315; conditions: GN315; (15) Pseudomonas aeruginosa GN-315
From the text: as §1

[11] = tested on: Pseudomonas aeruginosa 130; test: Bactericidal test (MIC), Pseudomonas aeruginosa 130; conditions: (16) Pseudomonas aeruginosa 130
From the text: as §1

| Compound | MIC [1] [mg/L] | MIC [2] [mg/L] | MIC (Bacillus subtilis) [mg/L] | MIC [3] [mg/L] | MIC [4] [mg/L] | MIC [5] [mg/L] | MIC (Enterobactor cloacae 147) [mg/L] | MIC [6] [mg/L] | MIC (Morganella var. G-2) [mg/L] | MIC (Rettgerella var. Tid-21) [mg/L] | MIC (Serratia G-18) [mg/L] | MIC [7] [mg/L] | MIC [8] [mg/L] | MIC [9] [mg/L] | MIC [10] [mg/L] | MIC [11] [mg/L] |
| --- | --- | --- | --- | --- | --- | --- | --- | --- | --- | --- | --- | --- | --- | --- | --- | --- |
| CC1(C)S[C@@H]2[C@H](NC(=O)[C@H](NC(=O)c3cc4cc(Br)cc(Br)c4oc3=O)c3ccccc3)C(=O)N2[C@H]1C(=O)O [Example 4, D(-)-α-(6,8-Dibromocoumarin-3-carbonamido)benzylpenicillin] | 1.56 (≈ 2.3 µM) | 50 (≈ 73.6 µM) | 1.56 (≈ 2.3 µM) | 3.13 (≈ 4.61 µM) | < 0.4 | 3.13 (≈ 4.61 µM) | 50 (≈ 73.6 µM) | 200 (≈ 294 µM) | 25 (≈ 36.8 µM) | 100 (≈ 147 µM) | 100 (≈ 147 µM) | 50 (≈ 73.6 µM) | 200 (≈ 294 µM) | 200 (≈ 294 µM) | 200 (≈ 294 µM) | 50 (≈ 73.6 µM) |
| CC(=O)Oc1ccc2cc(C(=O)N[C@@H](C(=O)N[C@@H]3C(=O)N4[C@@H]3SC(C)(C)[C@@H]4C(=O)O)c3ccccc3)c(=O)oc2c1 [Example 12, D(-)-α-(7-Acetoxycoumarin-3-carbonamido)benzylpenicillin] | < 0.4 | 3.13 (≈ 5.4 µM) | < 0.4 | < 0.4 | < 0.4 | 12.5 (≈ 21.6 µM) | 12.5 (≈ 21.6 µM) | 100 (≈ 173 µM) | 25 (≈ 43.1 µM) | 12.5 (≈ 21.6 µM) | 100 (≈ 173 µM) | 1.56 (≈ 2.69 µM) | 50 (≈ 86.3 µM) | 6.25 (≈ 10.8 µM) | 6.25 (≈ 10.8 µM) | 1.56 (≈ 2.69 µM) |
| CC(=O)Nc1ccc2oc(=O)c(C(=O)N[C@@H](C(=O)N[C@@H]3C(=O)N4[C@@H]3SC(C)(C)[C@@H]4C(=O)O)c3ccccc3)cc2c1 [Example 20, D(-)-α-(6-Acetylaminocoumarin-3-carbonamido)benzylpenicillin] | < 0.4 | 3.13 (≈ 5.41 µM) | < 0.4 | < 0.4 | < 0.4 | 1.56 (≈ 2.7 µM) | 6.25 (≈ 10.8 µM) | 6.25 (≈ 10.8 µM) | 6.25 (≈ 10.8 µM) | 6.25 (≈ 10.8 µM) | 50 (≈ 86.4 µM) | 3.13 (≈ 5.41 µM) | 50 (≈ 86.4 µM) | 6.25 (≈ 10.8 µM) | 6.25 (≈ 10.8 µM) | 1.56 (≈ 2.7 µM) |
| CC1(C)S[C@@H]2[C@H](NC(=O)[C@H](NC(=O)c3cc4cc([N+](=O)[O-])ccc4oc3=O)c3ccccc3)C(=O)N2[C@H]1C(=O)O [Example 13, D(-)-α-(6-Nitrocoumarin-3-carbonamido)benzylpenicillin] | < 0.4 | 6.25 (≈ 11 µM) | < 0.4 | < 0.4 | < 0.4 | 12.5 (≈ 22.1 µM) | 25 (≈ 44.1 µM) | 12.5 (≈ 22.1 µM) | 6.25 (≈ 11 µM) | 50 (≈ 88.3 µM) | 50 (≈ 88.3 µM) | 6.25 (≈ 11 µM) | 100 (≈ 177 µM) | 25 (≈ 44.1 µM) | 12.5 (≈ 22.1 µM) | 6.25 (≈ 11 µM) |
| COc1ccc2oc(=O)c(C(=O)N[C@@H](C(=O)N[C@@H]3C(=O)N4[C@@H]3SC(C)(C)[C@@H]4C(=O)O)c3ccccc3)cc2c1 [Example 7, D(-)-α-(6-Methoxycoumarin-3-carbonamido)benzylpenicillin] | < 0.4 | 1.56 (≈ 2.83 µM) | < 0.4 | < 0.4 | < 0.4 | < 0.4 | 3.13 (≈ 5.67 µM) | 3.13 (≈ 5.67 µM) | 6.25 (≈ 11.3 µM) | 6.25 (≈ 11.3 µM) | 12.5 (≈ 22.7 µM) | 1.56 (≈ 2.83 µM) | 25 (≈ 45.3 µM) | 3.13 (≈ 5.67 µM) | 3.13 (≈ 5.67 µM) | 1.56 (≈ 2.83 µM) |
| Cc1ccc2oc(=O)c(C(=O)N[C@@H](C(=O)N[C@@H]3C(=O)N4[C@@H]3SC(C)(C)[C@@H]4C(=O)O)c3ccccc3)c(C)c2c1 [Example 5, D(-)-α-(4,6-Dimethylcoumarin-3-carbonamido)benzylpenicillin] | < 0.4 | 1.56 (≈ 2.84 µM) | < 0.4 | < 0.4 | < 0.4 | 0.8 (≈ 1.46 µM) | 100 (≈ 182 µM) | 50 (≈ 91 µM) | 25 (≈ 45.5 µM) | 25 (≈ 45.5 µM) | 50 (≈ 91 µM) | 12.5 (≈ 22.7 µM) | 200 (≈ 364 µM) | 50 (≈ 91 µM) | 50 (≈ 91 µM) | 12.5 (≈ 22.7 µM) |
| CC(=O)Oc1cccc2cc(C(=O)N[C@@H](C(=O)N[C@@H]3C(=O)N4[C@@H]3SC(C)(C)[C@@H]4C(=O)O)c3ccccc3)c(=O)oc12 [Example 21, D-α-(8-Acetoxycoumarin-3-carbonamido)benzylpenicillin] | < 0.4 | 3.13 (≈ 5.4 µM) |  |  | < 0.4 | 0.8 (≈ 1.38 µM) |  | 6.25 (≈ 10.8 µM) | 1.56 (≈ 2.69 µM) | 1.56 (≈ 2.69 µM) | 12.5 (≈ 21.6 µM) | < 0.4 | 50 (≈ 86.3 µM) | 12.5 (≈ 21.6 µM) | 3.13 (≈ 5.4 µM) | 0.8 (≈ 1.38 µM) |
